Measurements taken from ChEMBL document CHEMBL3727359, “Methods and compositions for treating or preventing pruritis” (2012).
pIC50: −log10 of the molar value.

What was measured:
[1] = target: T1, Mas-related G-protein coupled receptor member X1 (Homo sapiens, UniProt Q96LB2); test: Antagonist activity at MrgX1 in mouse or rat DRG neurons assessed as intracellular Ca2+ level by FLIPR assay; format: functional, cell-based
[2] = target: T1, Mas-related G-protein coupled receptor member X1; test: Antagonist activity at MrgX1 in mouse or rat DRG neurons assessed as action potential by whole-cell patch clamp method; format: functional

T1 sequence (Q96LB2 whole entry, looked up): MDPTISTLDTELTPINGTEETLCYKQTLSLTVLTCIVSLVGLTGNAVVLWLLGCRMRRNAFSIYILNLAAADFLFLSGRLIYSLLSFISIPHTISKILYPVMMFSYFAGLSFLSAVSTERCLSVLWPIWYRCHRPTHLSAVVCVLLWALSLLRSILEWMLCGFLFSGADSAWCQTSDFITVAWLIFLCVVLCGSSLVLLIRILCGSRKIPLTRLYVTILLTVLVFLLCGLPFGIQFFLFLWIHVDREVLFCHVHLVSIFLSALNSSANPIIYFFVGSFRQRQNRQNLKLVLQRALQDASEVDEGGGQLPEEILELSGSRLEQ

In the case of N#Cc1ccc(COC2C3CCN(CC3)C2C(c2ccccc2)c2ccccc2)cc1 (configuration not stated), the pIC50 [1] was 6.20 and the pIC50 [2] was 5.25.
